Experimental findings from patent US20020044933A1, “Inhibition of intimal hyperplasia using antibodies to PDGF receptors” (priority 1993, published 2002) are described below.

One assay has as its system rat smooth muscle cells. As to the kind of experiment: Inhibition of PDGF-BB binding to rat smooth muscle cells.
The test system of assay [1] is baboon smooth muscle cells. Nature of the assay: Inhibition of PDGF mitogenic activity on baboon smooth muscle cells by non-peptidic antagonists. It counts as cell-based.

As to `O=C(/C=C/c1ccccc1)OC1C=CC2COC(=O)C2C1C(=O)O` (stereo not shown) [92-0825], the “inhibition of binding of PDGF-BB to rat smooth muscle cells” value in the assay on rat smooth muscle cells is given as “inhibit binding”. The “inhibition of PDGF-BB mitogenic activity on baboon smooth muscle cells” value in assay [1] is “inhibit PDGF-BB mitogenic activity”.

Turning to `CC1CCCC=CC2CC(O)CC2C(O)C=CC(=O)O1` (stereo not shown) [Brefeldin A, 1,6,7,8,9,11a,12,13,14,14a-Decahydro-1,13-dihydroxy-6-methyl-4H-cyclopent[f]oxacyclotridecin-4-one], the “inhibition of PDGF mitogenic activity on baboon smooth muscle cells” value in assay [1] is “inhibit”. Further, the “inhibition of PDGF mitogenic activity on baboon smooth muscle cells in the presence of heparin” value in assay [1] (with heparin) is “enhanced”.
